From patent US20070010671A1, “Novel quinazoline derivatives and methods of treatment related to the use thereof” (priority 2003, published 2007)
pIC50: −log10 of the molar value.

Target: MCH receptor (Homo sapiens, UniProt Q99705)
Assay: High throughput functional screening FLIPR/FDSS6000: inhibition of MCH-evoked intracellular Ca2+ changes
Type: cell-based
Conditions: class by percent of control at 10^-7 M or IC50
How it was run: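 Antagonism was measured as inhibition of calcium responses to 50 nM MCH, monitored 290 s at ex 488/em 530 nm on FLIPR or FDSS6000. Beforehand, cells bearing a constitutively active MCH receptor received Fluo4-AM (4 μM, 1 h, 37 °C) with probenecid, and test compound for 3 min.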

Row | Structure (SMILES) | class
1 | CN(C)c1nc(N[C@H]2CC[C@@H](CNC(=S)Nc3ccc(Cl)cc3Cl)CC2)nc2ccccc12 [compound 589] | 3 (Class 3: The value of percent of control at 10^−7 M was more than 60% or the value of IC50 was more than 200 nM.)
2 | Cc1cc(Br)cc(C)c1NC(=O)N[C@H]1CC[C@@H](Nc2nc(N(C)C)c3ccccc3n2)CC1 [compound 333, N-(4-bromo-2,6-dimethylphenyl)-N′-(cis-4-{[4-(dimethylamino)quinazolin-2-yl]amino}cyclohexyl)urea] | 1 (Class 1: The value of percent of control at 10^−7 M was less than 40% or the value of IC50 was less than 50 nM.)
3 | CN(C)c1nc(N[C@H]2CC[C@@H](CNC(=S)Nc3cc(C(F)(F)F)ccc3F)CC2)nc2ccccc12 [compound 641] | 3 (Class 3: The value of percent of control at 10^−7 M was more than 60% or the value of IC50 was more than 200 nM.)
4 | CN(C)c1nc(N[C@H]2CC[C@@H](CNC(=S)NC3CC3)CC2)nc2ccccc12 [compound 712] | 3 (Class 3: The value of percent of control at 10^−7 M was more than 60% or the value of IC50 was more than 200 nM.)
5 | C/C=C/CNC(=S)N[C@H]1CC[C@@H](Nc2nc(N(C)C)c3ccccc3n2)CC1 [compound 327] | 3 (Class 3: The value of percent of control at 10^−7 M was more than 60% or the value of IC50 was more than 200 nM.)
6 | CN(C)c1nc(N[C@H]2CC[C@@H](CNC(=O)NCc3cccc(F)c3)CC2)nc2ccccc12 [compound 533, N-[(cis-4-{[4-(dimethylamino)quinazolin-2-yl]amino}cyclohexyl)methyl]-N′-(3-fluorobenzyl)urea] | 2 (Class 2: The value of percent of control at 10^−7 M was from 40% to 60% or the value of IC50 was from 50 nM to 200 nM.)
7 | CN(C)c1nc(N[C@H]2CC[C@@H](NC(=S)NCCCCc3ccccc3)CC2)nc2ccccc12 [compound 374] | 2 (Class 2: The value of percent of control at 10^−7 M was from 40% to 60% or the value of IC50 was from 50 nM to 200 nM.)
8 | CN(C)c1nc(N[C@H]2CC[C@@H](CNC(=O)Nc3ccc(F)cc3)CC2)nc2ccccc12 [compound 437, N-[(cis-4-{[4-(dimethylamino)quinazolin-2-yl]amino}cyclohexyl)methyl]-N′-(4-fluorophenyl)urea] | 1 (Class 1: The value of percent of control at 10^−7 M was less than 40% or the value of IC50 was less than 50 nM.)
9 | COc1cc(NC(=S)N[C@H]2CC[C@@H](Nc3nc(N(C)C)c4ccccc4n3)CC2)c(OC)cc1Cl [compound 373, N-(4-chloro-2,5-dimethoxyphenyl)-N′-(cis-4-{[4-(dimethylamino)quinazolin-2-yl]amino}cyclohexyl)thiourea] | 1 (Class 1: The value of percent of control at 10^−7 M was less than 40% or the value of IC50 was less than 50 nM.)
10 | Cc1ccc(NC(=S)NC[C@H]2CC[C@@H](Nc3nc(N(C)C)c4ccccc4n3)CC2)c(Br)c1 [compound 676] | 3 (Class 3: The value of percent of control at 10^−7 M was more than 60% or the value of IC50 was more than 200 nM.)
11 | Cc1ccc(Cl)cc1NC(=S)NC[C@H]1CC[C@@H](Nc2nc(N(C)C)c3ccccc3n2)CC1 [compound 662] | 2 (Class 2: The value of percent of control at 10^−7 M was from 40% to 60% or the value of IC50 was from 50 nM to 200 nM.)
12 | Cc1ccc(NC(=S)NC[C@H]2CC[C@@H](Nc3nc(N(C)C)c4ccccc4n3)CC2)cc1C [compound 790] | 3 (Class 3: The value of percent of control at 10^−7 M was more than 60% or the value of IC50 was more than 200 nM.)
13 | CN(C)c1nc(N[C@H]2CC[C@@H](CNC(=S)Nc3cc(F)ccc3F)CC2)nc2ccccc12 [compound 591] | 3 (Class 3: The value of percent of control at 10^−7 M was more than 60% or the value of IC50 was more than 200 nM.)
14 | CN(C)c1nc(N[C@H]2CC[C@@H](CNC(=S)Nc3ccc(OC(F)(F)F)cc3)CC2)nc2ccccc12 [compound 654] | 3 (Class 3: The value of percent of control at 10^−7 M was more than 60% or the value of IC50 was more than 200 nM.)
15 | CN(C)c1nc(N[C@H]2CC[C@@H](NC(=S)NCc3cccc(F)c3)CC2)nc2ccccc12 [compound 308, N-(cis-4-{[4-(dimethylamino)quinazolin-2-yl]amino}cyclohexyl)-N′-(3-fluorobenzyl)thiourea] | 2 (Class 2: The value of percent of control at 10^−7 M was from 40% to 60% or the value of IC50 was from 50 nM to 200 nM.)
16 | CN(C)c1nc(N[C@H]2CC[C@@H](NC(=S)Nc3ccc(Oc4ccccc4)cc3)CC2)nc2ccccc12 [compound 323] | 3 (Class 3: The value of percent of control at 10^−7 M was more than 60% or the value of IC50 was more than 200 nM.)
17 | Cc1noc(-c2ccccc2)c1NC(=O)NC[C@H]1CC[C@@H](Nc2nc(N(C)C)c3ccccc3n2)CC1 [compound 775] | 1 (Class 1: The value of percent of control at 10^−7 M was less than 40% or the value of IC50 was less than 50 nM.)
18 | COc1ccc(-c2ccccc2)cc1NC(=S)NC[C@H]1CC[C@@H](Nc2nc(N(C)C)c3ccccc3n2)CC1 [compound 603] | 3 (Class 3: The value of percent of control at 10^−7 M was more than 60% or the value of IC50 was more than 200 nM.)
19 | CN(C)c1nc(N[C@H]2CC[C@@H](CNC(=S)Nc3ccccc3C(F)(F)F)CC2)nc2ccccc12 [compound 632] | 3 (Class 3: The value of percent of control at 10^−7 M was more than 60% or the value of IC50 was more than 200 nM.)

Same assay, conditions: class by percent of control at 10^-7 M or by IC50; read-out: class

Row | pIC50 | Structure (SMILES)
20 | < 6.70 | CN(C)c1nc(N[C@H]2CC[C@@H](NC(=S)Nc3cc(Cl)ccc3Cl)CC2)nc2ccccc12 [compound 168]
21 | < 6.70 | CN(C)c1nc(N[C@H]2CC[C@@H](NC(=O)Nc3cccc([N+](=O)[O-])c3)CC2)nc2ccccc12 [compound 135]
22 | < 6.70 | CCOc1ccc(NC(=S)N[C@H]2CC[C@@H](Nc3nc(N(C)C)c4ccccc4n3)CC2)cc1 [compound 172]
23 | < 6.70 | COC(=O)c1ccccc1NC(=O)N[C@H]1CC[C@@H](Nc2nc(N(C)C)c3ccccc3n2)CC1 [compound 70, metyl 2-({[4(cis-4-{[-(dimethylamino)quinazolin-2-yl]amino}cyclohexyl)amino]carbonyl}amino)benzoate]
24 | < 6.70 | COCCOC(=O)N[C@H]1CC[C@@H](Nc2nc(N(C)C)c3ccccc3n2)CC1 [compound 852]
25 | > 7.30 | CN(C)c1nc(N[C@H]2CC[C@@H](NC(=S)Nc3ccc(Cl)cc3Cl)CC2)nc2ccccc12 [compound 165, N-(2,4-dichlorophenyl)-N′-(cis-4-{[4-(dimethylamino)quinazolin-2-yl]amino}cyclohexyl)thiourea]
26 | 6.70 to 7.30 | COc1ccc(-c2ccccc2)cc1NC(=S)N[C@H]1CC[C@@H](Nc2nc(N(C)C)c3ccccc3n2)CC1 [compound 179, N-(cis-4-{[4-(dimethylamino)quinazolin-2-yl]amino}cyclohexyl)-N′-(4-methoxybiphenyl-3-yl)thiourea]
27 | < 6.70 | CN(C)c1nc(N[C@H]2CC[C@@H](NC(=O)Nc3cccc(Cl)c3)CC2)nc2ccccc12 [compound 14]

Same assay, conditions: class by percent of control at 10^−7 M or by IC50; read-out: class

Row | pIC50 | Structure (SMILES)
28 | > 7.30 | COc1ccc(OCC(=O)N[C@H]2CC[C@@H](Nc3nc(N(C)C)c4ccccc4n3)CC2)cc1 [Example 1080, N-(cis-4-{[4-(dimethylamino)quinazolin-2-yl]amino}cyclohexyl)-2-(4-methoxyphenoxy)acetamide]
29 | > 7.30 | CN(C)c1nc(N[C@H]2CC[C@@H](NC(=O)c3ccc(Oc4cccc(F)c4F)nc3)CC2)nc2ccccc12 [Example 1064, 6-(2,3-difluorophenoxy)-N-(cis-4-{[4-(dimethylamino)quinazolin-2-yl]amino}cyclohexyl)nicotinamide]
